Results taken from PubChem BioAssay AID651962 (The Scripps Research Institute Molecular Screening Center, 2012).
The source made the active and inactive calls. No rule for the calls is given here.

These molecules were tested against Receptor-interacting serine/threonine-protein kinase 2 (Homo sapiens) (UniProt O43353) (assay: RIPK2-NOD2 association inhibitors, IC50 – cell-based, fluorescence, late-stage follow-up (AID 651962)). Settings: cell-based NOD2-RIPK2 interaction, fluorescence read-out.
Sequence of Receptor-interacting serine/threonine-protein kinase 2 (Homo sapiens) (O43353 whole entry, looked up): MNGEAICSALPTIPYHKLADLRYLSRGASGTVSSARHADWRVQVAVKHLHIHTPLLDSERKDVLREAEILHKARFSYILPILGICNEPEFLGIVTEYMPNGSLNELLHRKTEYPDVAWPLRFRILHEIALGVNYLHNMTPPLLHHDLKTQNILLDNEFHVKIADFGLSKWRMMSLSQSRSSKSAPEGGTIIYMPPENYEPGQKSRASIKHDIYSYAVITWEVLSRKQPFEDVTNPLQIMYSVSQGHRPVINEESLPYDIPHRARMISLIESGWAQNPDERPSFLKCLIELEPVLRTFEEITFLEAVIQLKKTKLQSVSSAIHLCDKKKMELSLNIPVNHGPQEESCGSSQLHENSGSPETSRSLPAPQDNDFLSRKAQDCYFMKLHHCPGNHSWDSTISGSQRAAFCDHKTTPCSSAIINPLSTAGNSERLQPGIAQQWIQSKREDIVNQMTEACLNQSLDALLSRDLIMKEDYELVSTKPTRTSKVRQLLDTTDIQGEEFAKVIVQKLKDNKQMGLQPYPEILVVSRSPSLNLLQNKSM
With `Cc1nc([N+](=O)[O-])c(Br)n1Cc1ccccc1` the IC50 was “inactive”.
An IC50 of 3.81 µM was found for `COc1ccc(C(C[N+](=O)[O-])n2nc(C)cc2C)cc1` (stereo unspecified) in this work.
`Cc1nc([N+](=O)[O-])c(Br)n1Cc1ccc(Cl)c(Cl)c1` was tested, and the IC50 was “inactive”.
For `Cc1ncc([N+](=O)[O-])n1Cc1ccc(Cl)c(Cl)c1`, the IC50 was > 49.8 µM (inactive).
An IC50 of 2.97 µM was found for `Cc1ccc(C(C[N+](=O)[O-])n2nc(C)cc2C)cc1` (stereo unspecified) in this work.
In the case of `O=S(=O)(c1ccc(F)cc1)N1CCCCCC1`, the IC50 is reported as > 49.8 µM (inactive).
In the case of `O=S(=O)(c1ccccc1)N1CCCCCC1`, the IC50 is reported as > 49.8 µM (inactive).
For `O=[N+]([O-])c1cccc(S(=O)(=O)N2CCCCCC2)c1`, the IC50 was > 49.8 µM (inactive).
With `Cc1ccc(S(=O)(=O)N2CCCCCC2)cc1[N+](=O)[O-]` the IC50 was > 49.8 µM (inactive).
For `Cc1cc(S(=O)(=O)N2CCCCCC2)ccc1F`, the IC50 was > 49.8 µM (inactive).
An IC50 of 8.04 µM was found for `O=[N+]([O-])c1cc(S(=O)(=O)N2CCCCCC2)ccc1F` in this work.
